This note sets out measurements from patent publication US9540379B2 (priority 2011, dated 2017).

Molecules are shown by their SMILES.

The target in the assay is PDE10A (Homo sapiens (Human), UniProt Q9Y233). The note with it: read-out: Inhibition of PDE10A, IC50.
Chain of PDE10A (Q9Y233 other isoform, or with tags, fused parts or gaps): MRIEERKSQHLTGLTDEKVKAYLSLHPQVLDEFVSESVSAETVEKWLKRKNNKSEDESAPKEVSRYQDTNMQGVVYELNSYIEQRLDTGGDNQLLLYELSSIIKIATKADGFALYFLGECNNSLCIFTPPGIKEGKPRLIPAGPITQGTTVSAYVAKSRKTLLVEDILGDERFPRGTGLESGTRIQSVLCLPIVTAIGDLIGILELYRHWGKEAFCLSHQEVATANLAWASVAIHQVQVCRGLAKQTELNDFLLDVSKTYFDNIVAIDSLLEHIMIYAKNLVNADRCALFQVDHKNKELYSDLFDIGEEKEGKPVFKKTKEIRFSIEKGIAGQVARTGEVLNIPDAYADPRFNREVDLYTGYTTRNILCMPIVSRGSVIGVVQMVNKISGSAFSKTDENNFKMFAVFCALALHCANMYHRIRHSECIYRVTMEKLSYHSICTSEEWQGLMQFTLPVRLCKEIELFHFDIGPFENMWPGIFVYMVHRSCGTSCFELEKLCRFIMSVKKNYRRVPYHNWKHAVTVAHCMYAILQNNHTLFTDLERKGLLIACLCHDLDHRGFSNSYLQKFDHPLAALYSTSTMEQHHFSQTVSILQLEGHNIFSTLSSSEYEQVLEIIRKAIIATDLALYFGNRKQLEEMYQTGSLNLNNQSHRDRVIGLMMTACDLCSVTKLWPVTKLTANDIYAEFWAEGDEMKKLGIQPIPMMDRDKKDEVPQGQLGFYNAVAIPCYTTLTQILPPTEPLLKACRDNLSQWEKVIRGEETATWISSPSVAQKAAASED
Protocol: Inhibition of Recombinant PDE10A (Expressed in Baculovirus/SF21 Cells)
PDE activity was determined in a one step procedure in microtiter plates. The reaction mixture of 100 μl contained 50 mM Tris-HCl/5 mM MgCl2 buffer (pH=7.4, Sigma, Deisenhofen, Germany; Merck, Darmstadt, Germany) 0.1 μM [3H]-cAMP (PerkinElmer, Shelton, USA) and the enzyme. Non-specific enzyme activity was determined without the enzyme.
The reaction was initiated by addition of the substrate solution and was carried out at 37° C. for 30 minutes. Enzymatic activity then was stopped by addition of 25 μl Ysi-SPA-beads (PerkinElmer, Shelton, USA). One h later the mixture was measured in a liquid scintillation counter for microtiter plates (Microbeta Trilux). The Biomek 2000 (Beckman) was used routinely for pipetting of the incubation mixture. […] For determination of IC50 values the Hill-plot, 2-parameter-model, was used.
Take `Cc1nc2cc(Cl)ccc2n2c(-c3cc(Cl)ccc3Cl)nnc12` [Example 19, 7-Chloro-1-(2,5-dichloro-phenyl)-4-methyl-[1,2,4]triazolo[4,3-a]quinoxaline]: the half-maximal inhibitory concentration (IC50) is above 1 µM.

For the molecule `Cc1nc2ccc(C(F)(F)F)cc2n2c(-c3cc(C(F)(F)F)ccc3Cl)nnc12` [Example 65, 1-(2-Chloro-5-trifluoromethyl-phenyl)-4-methyl-8-trifluoromethyl-[1,2,4]triazolo[4,3-a]quinoxaline], the IC50 is above 1 µM.

As to `Cc1nc2ccccc2n2c(-c3cc(OCCC4CCOCC4)ccc3Cl)nnc12` [Example 97, 1-{2-Chloro-5-[2-(tetrahydro-pyran-4-yl)-ethoxy]-phenyl}-4-methyl-[1,2,4]triazolo[4,3-a]quinoxaline], the concentration for half-maximal inhibition (IC50) was above 1 µM.

Consider `Cc1nc2ccccc2n2c(-c3cc(OCC(=O)c4ccccn4)ccc3Cl)nnc12` [Example 93, 2-[4-Chloro-3-(4-methyl-[1,2,4]triazolo[4,3-a]quinoxalin-1-yl)-phenoxy]-1-pyridin-2-yl-ethanone], for which the half-maximal inhibitory concentration (IC50) is above 1 µM.

For the molecule `COc1ccc(Cl)c(-c2nnc3c(C)nc4ccc(Cl)cc4n23)c1` [Example 7, 8-Chloro-1-(2-chloro-5-methoxy-phenyl)-4-methyl-[1,2,4]triazolo[4,3-a]quinoxaline], the IC50 came out at 0.104 µM.

For `Cc1nc2cc(C#N)ccc2n2c(-c3cc(OCCCC(F)(F)F)ccc3Cl)nnc12` [Example 111, 7-Cyano-1-[2-chloro-5-(4,4,4,-trifluoro-butoxy)-phenyl]-4-methyl-[1,2,4]triazolo[4,3-a]quinoxaline], the IC50 was above 1 µM.

Turning to `Cc1nc2ccc(Cl)cc2n2c(-c3cc(O)ccc3Cl)nnc12` [Example 107, 4-Chloro-3-(8-chloro-4-methyl-[1,2,4]triazolo[4,3-a]quinoxalin-1-yl)-phenol], the IC50 turned out to be 0.013 µM.

Take `COc1ccccc1-c1nnc2c(C)nc3ccc(C(F)(F)F)cc3n12` [Example 63, 1-(2-Methoxy-phenyl)-4-methyl-8-trifluoromethyl-[1,2,4]triazolo[4,3-a]quinoxaline]: the IC50 amounted to 0.265 µM.

As to `Cc1nc2ccc(Cl)cc2n2c(-c3cc(OCC(C)O)ccc3Cl)nnc12` (stereo not drawn) [Example 102, 1-[4-Chloro-3-(8-chloro-4-methyl-[1,2,4]triazolo[4,3-a]quinoxalin-1-yl)-phenoxy]-propan-2-ol], the IC50 was 0.611 µM.

For `COc1ccc2c(c1)nc(C)c1nnc(-c3ccccc3Cl)n12` [Example 74, 1-(2-Chloro-phenyl)-7-methoxy-4-methyl-[1,2,4]triazolo[4,3-a]quinoxaline], the IC50 is 0.068 µM.

Take `Cc1nc2ccc(C(F)(F)F)cc2n2c(-c3ccccc3F)nnc12` [Example 66, 1-(2-Fluorophenyl)-4-methyl-8-trifluoromethyl-[1,2,4]triazolo[4,3-a]quinoxaline]: the concentration for half-maximal inhibition (IC50) is 0.471 µM.

Take `Cc1nc2ccc(Cl)cc2n2c(-c3cc(C(F)(F)F)ccc3Cl)nnc12` [Example 10, 8-Chloro-1-(2-chloro-5-trifluoromethyl-phenyl)-4-methyl-[1,2,4]triazolo[4,3-a]quinoxaline]: the 50% inhibitory concentration (IC50) was above 1 µM.

On to `Cc1ccc2nc(C)c3nnc(-c4cc(OCCCC(F)(F)F)ccc4Cl)n3c2c1` [Example 110, 1-[2-Chloro-5-(4,4,4,-trifluoro-butoxy)-phenyl]-4,8-dimethyl-[1,2,4]triazolo[4,3-a]quinoxaline], for which the half-maximal inhibitory concentration (IC50) was above 1 µM.

In the case of `COc1ccc(Cl)c(-c2nnc3c(C)nc4ccc(F)cc4n23)c1` [Example 56, 1-(2-Chloro-5-methoxy-phenyl)-8-fluoro-4-methyl-[1,2,4]triazolo[4,3-a]quinoxaline], the IC50 is 0.279 µM.

For `CCCCCCOc1ccc(F)c(-c2nnc3c(C)nc4ccc(C(F)(F)F)cc4n23)c1` [Example 68, 1-(2-Fluoro-5-hexyloxy-phenyl)-4-methyl-8-trifluoromethyl-[1,2,4]triazolo[4,3-a]quinoxaline], the IC50 is above 1 µM.

A word on the IC50: it is the concentration that gives 50% inhibition.
